Literature values in US10912848B2, “Dual-purpose PAT/ultrasound contrast agent bound with nanoparticles containing drug and method for preparing same” (IMGT CO, LTD., priority 2014, dated 2021).
Read-outs that look alike come from different tables or passages of the source.

Details: 25° C.

volume of solvent required to dissolve 1 g of drug (H2O): 300 mL | volume of solvent required to dissolve 1 g of drug (ethanol): 5 mL
Compound: CC(=O)Oc1ccccc1C(=O)O [aspirin]
